The results in this text go back to article PMC12731105, “Design and Synthesis of New Quinoxaline Analogs to Regenerate Sensory Auditory Hair Cells” (Cells, 2025).

One data set deals with Neuro-2A. Briefly: TACS MTT cell proliferation / metabolic activity assay in Neuro-2A. Format: cell-based, mouse. To be noted: for Increase in MTT absorbance compared to DMSO controls and untreated cells: low-dose exposure (≤5 μM); for MTT absorbance change at higher concentrations: ≥5 μM. On the procedure:
(§1) HEI-OC1 cells derived from the mouse OC (kindly provided by Dr. F. Kalinec) were cultured under permissive conditions (33 °C, 10% CO2) as described in [22]. Additionally, we assessed the activity of Qx-derived compounds in the mouse neuroblastoma cell line, Neuro-2A, and the human fibrosarcoma HT-1080 (ATCC, Manassas, VA, USA) following the standard cell culture guidelines provided by the vendor.
(§2) In vitro cell proliferation effects of all ten initial compounds (Figure 1A,B) were tested on HEI-OC1, Neuro-2A and HT-1080 cells by TACS® 3-(4,5-dimethylthiazol-2-yl)-2,5-diphenyltetrazolium bromide (MTT) Cell Proliferation Assay (R&D Systems, Minneapolis, MN, USA, 4890-025-K), following the manufacturer’s protocol. Absorbance was measured with SpectraMax® M Series Multi-Mode Microplate Reader with Soft Max Pro 7.2 GxP Software (Molecular Devices, Sunnyvale, CA, USA), and the average OD in control cells was taken as 100% of viability. Upon selecting the most viable compounds (Qx-294 and Qx-301), we proceeded with in vivo experiments. For zebrafish treatment, animals were incubated for varied times with different concentrations (50, 100, 150, 200, 250, and 300 μg/mL) of Qx-294 or Qx-301 diluted in swimming (E3) media or administered via IP injections. Mice treatment followed the same procedures as described in [18]. Following treatment, animals or tissue samples were incubated in Click-it EdU or Click-it Plus TUNEL kits (Thermo Scientific, Waltham, MA, USA), following the manufacturer’s instructions to label proliferating and apoptotic cells, respectively.

The subject of another data set is HEI-OC1 cells. Briefly: TACS MTT cell proliferation / metabolic activity assay in HEI-OC1. Format: cell-based, mouse. To be noted: for Proliferative effect and metabolic activity at low concentrations: 0.1 μM to 5 μM, 24 h incubation, also stated for Neuro-2A and HT-1080; for Proliferative effect vs Qx-70 and untreated cells: HEI-OC1, TACS MTT; for Metabolic and proliferative activities at high concentrations: concentrations higher than 5 μM, across all three lines. How it is done: as §1, §2

The next data set relates to HT-1080. Put plainly: TACS MTT cell proliferation / metabolic activity assay in HT-1080. Format: cell-based, human. Conditions: for Increase in MTT absorbance compared to DMSO controls and untreated cells: HT-1080, low-dose exposure (≤5 μM); for MTT absorbance change at higher concentrations: HT-1080, ≥5 μM. On the procedure:
as §1, §2

Data set [1] concerns zebrafish neuromast cells. Put plainly: TUNEL assay in zebrafish neuromasts. Format: in vivo, zebrafish (Danio rerio). Conditions: 400 μM, 6 h. On the procedure:
Absorbance was measured with SpectraMax® M Series Multi-Mode Microplate Reader with Soft Max Pro 7.2 GxP Software (Molecular Devices, Sunnyvale, CA, USA), and the average OD in control cells was taken as 100% of viability. […] Mice treatment followed the same procedures as described in [18]. Following treatment, animals or tissue samples were incubated in Click-it EdU or Click-it Plus TUNEL kits (Thermo Scientific, Waltham, MA, USA), following the manufacturer’s instructions to label proliferating and apoptotic cells, respectively.

In the case of `CCNc1cnc2ccccc2n1` [Qx-292, 2-(ethylamine)-quinoxaline], in the data set with Neuro-2A, the “Increase in MTT absorbance compared to DMSO controls and untreated cells” value (“Increase in MTT absorbance” for short) is on record as at most 9%; the “MTT absorbance change at higher concentrations” value (from here on “MTT absorbance change”) was “moderate reductions”. For the same compound, in the data set with HEI-OC1 cells, the “Proliferative effect and metabolic activity at low concentrations” value was “high proliferative effect and increased metabolic activity”; the “Proliferative effect vs Qx-70 and untreated cells” value was “significant and reproducible proliferative effects greater than those of Qx-70 and the untreated cells”; the “Metabolic and proliferative activities at high concentrations” value (from here on “Metabolic and proliferative activities”) is on record as “declined”. For the same compound, in the data set with HT-1080, the “Increase in MTT absorbance” value was at most 9%; the “MTT absorbance change” value was “moderate reductions”.
For the compound `N.N.[Cl][Pt][Cl]` [cisplatin, reference compound], in data set [1], the “Cell death (TUNEL) in neuromasts, positive control” value was “extensive cell death”.
As for `CC(=O)N1CCN(c2cnc3ccccc3n2)CC1` [Qx-296, 2-(4-acetylpiperazine)-quinoxaline], in the data set on Neuro-2A, the “Increase in MTT absorbance” value is given as at most 9%; the “MTT absorbance change” value is listed as “moderate reductions”. In the data set on HEI-OC1 cells, the “Proliferative effect and metabolic activity at low concentrations” value is “high proliferative effect and increased metabolic activity”; the “Proliferative effect vs Qx-70 and untreated cells” value is “significant and reproducible proliferative effects greater than those of Qx-70 and the untreated cells”; the “Metabolic and proliferative activities” value is reported as “declined”. Besides, in the data set on HT-1080, the “Increase in MTT absorbance” value was at most 9%; the “MTT absorbance change” value is “moderate reductions”.
For `c1ccc2nc(N3CCSCC3)cnc2c1` [Qx-295, 2-(thiomorpholine)-quinoxaline], in the data set with Neuro-2A, the “Increase in MTT absorbance” value is reported as at most 9%; the “MTT absorbance change” value is “moderate reductions”. In addition, in the data set on HEI-OC1 cells, the “Proliferative effect and metabolic activity at low concentrations” value was “high proliferative effect and increased metabolic activity”; the “Proliferative effect vs Qx-70 and untreated cells” value is “significant and reproducible proliferative effects greater than those of Qx-70 and the untreated cells”; the “Metabolic and proliferative activities” value is reported as “declined”. Besides, in the data set with HT-1080, the “Increase in MTT absorbance” value is reported as at most 9%; the “MTT absorbance change” value is listed as “moderate reductions”.
